We go through 1 compound from ChEMBL document CHEMBL5154907, “Discovery and Anti-Inflammatory Activity Evaluation of a Novel CDK8 Inhibitor through Upregulation of IL-10 for the Treatment of Inflammatory Bowel Disease In Vivo” (J Med Chem, 2022).

Active and inactive are the calls of the source. The rule behind the calls is not given here.

Data set [1] relates to BMDC. In words: Anti-inflammatory activity against R848 stimulated-mouse BMDC cells assessed as downregulation of IL-6 production by ELISA method. In kind it is functional, cell-based. On the technique in general: An ELISA detects its analyte on a solid surface through an enzyme-linked reagent.
Data set [2] deals with BMDC. In words: Inhibition of NF-kappa-B phosphorylation in R848-stimulated mouse BMDC cells at 1 to 4 uM treated for 2 hrs followed by R848 stimulation for 12 hrs by western blot analysis. Conditions: dose 1-4 µM, time 14.0 hrs. It is filed as cell-based.
A short description of data set [3]: Acute toxicity in 12 hr fasted ICR mouse assessed as effect on heart at 2000 mg/kg, po measured after 7 days by hematoxylin and eosin staining based histopathological analysis. Conditions: in vivo, 168 h, time 7 day. In kind it is organism-based.
Data set [4] deals with Mus musculus. In words: Anti-inflammatory activity in C57BL/6 mouse model of inflammatory bowel disease assessed as decrease in DSS-induced ERK phosphorylation in colon tissue at 5 to 20 mg/kg, po measured after 10 days by western blot analysis. In kind it is functional, organism-based. Particulars: dose 5-20 mg/kg, time 10.0 day, DDE = dose-dependent effect.
The test system of data set [5] is Mus musculus. Briefly: Anti-inflammatory activity in C57BL/6 mouse model of inflammatory bowel disease assessed as reversal of DSS-induced MyD88 expression in colon tissue at 5 to 20 mg/kg, po measured after 10 days by western blot analysis. It is filed as functional, organism-based. Conditions: dose 5-20 mg/kg, time 10.0 day.
A short description of data set [6]: Bioavailability in Sprague-Dawley rat at 10 mg/kg, po measured for 3 to 1440 mins by HPLC analysis. It is filed as ADME, organism-based. Conditions: in vivo, time 3-1440 min.
Data set [7] in a line: MRT in Sprague-Dawley rat at 10 mg/kg, po measured for 3 to 1440 mins by HPLC analysis. In kind it is ADME, organism-based. Particulars: in vivo, time 3-1440 min.
Data set [8] has as its system Mus musculus. In words: Anti-inflammatory activity in C57BL/6 mouse model of inflammatory bowel disease assessed as decrease in DSS-induced TNF-alpha levels in serum at 5 to 20 mg/kg, po daily measured after 10 days by ELISA method. In kind it is functional, organism-based. Particulars: dose 5-20 mg/kg, time 10.0 day.
Data set [9] can be described thus: Cmax in Sprague-Dawley rat at 10 mg/kg, po measured for 3 to 1440 mins by HPLC analysis. It is filed as ADME, organism-based. Conditions: in vivo.
Data set [10] concerns BMDC. Briefly: Inhibition of ERK phosphorylation in R848-stimulated mouse BMDC cells at 1 to 4 uM treated for 2 hrs followed by R848 stimulation for 12 hrs by western blot analysis. In kind it is cell-based. Particulars: dose 1-4 µM, time 14.0 hrs. Background: A western blot detects proteins with antibodies after separation by electrophoresis.
A short description of data set [11]: MRT in Sprague-Dawley rat at 5 mg/kg, iv measured for 3 to 1440 mins by HPLC analysis. It is filed as ADME, organism-based. Conditions: in vivo, time 3-1440 min.
Data set [12] addresses Cyclin-dependent kinase 8 (Homo sapiens) (UniProt P49336). In words: Binding affinity to CDK8 in human HCT-116 cells assessed as reduction in protease-induced CDK8 degradation at 1 to 4 uM treated for 6 hrs followed by protease treatment for 30 mins by western blot analysis. In kind it is cell-based. Particulars: dose 1-4 µM, time 390.0 min, DDE = dose-dependent effect.
The target of data set [13] is T1, Cyclin-dependent kinase 8 (Mus musculus) (UniProt Q8R3L8).
T1 sequence (whole entry): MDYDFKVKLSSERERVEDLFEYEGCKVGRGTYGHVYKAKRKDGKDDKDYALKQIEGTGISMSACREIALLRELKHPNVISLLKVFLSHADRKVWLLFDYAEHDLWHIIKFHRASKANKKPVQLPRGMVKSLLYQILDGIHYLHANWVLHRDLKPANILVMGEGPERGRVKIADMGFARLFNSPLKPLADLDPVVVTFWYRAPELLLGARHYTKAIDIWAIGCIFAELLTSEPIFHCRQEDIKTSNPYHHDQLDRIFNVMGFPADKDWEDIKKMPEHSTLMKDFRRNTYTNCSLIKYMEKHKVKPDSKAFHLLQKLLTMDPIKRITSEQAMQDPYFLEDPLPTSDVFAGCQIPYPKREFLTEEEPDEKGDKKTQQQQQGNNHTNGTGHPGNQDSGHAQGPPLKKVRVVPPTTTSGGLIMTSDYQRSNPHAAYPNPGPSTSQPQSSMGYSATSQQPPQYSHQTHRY
In words: Inhibition of CDK8 in R848-stimulated mouse BMDC cells assessed as downregulation of c-Jun phosphorylation at Ser243 at 1 to 4 uM treated for 2 hrs followed by R848 stimulation for 12 hrs by western blot analysis. In kind it is cell-based. Particulars: dose 1-4 µM, time 14.0 hrs.

Data set [14] is described as follows: Acute toxicity in 12 hr fasted ICR mouse assessed as effect on kidney at 2000 mg/kg, po measured after 7 days by hematoxylin and eosin staining based histopathological analysis. Particulars: in vivo, 168 h, time 7 day. In kind it is organism-based.

What is called bioavailability is dose-corrected exposure relative to a reference, in per cent. A low value points to poor availability. Broadly, the MRT is the average time that molecules of a dose stay in the body. As usually defined, the Cmax is the highest concentration seen after dosing.

Chain of Cyclin-dependent kinase 8 (Homo sapiens) (P49336 whole entry): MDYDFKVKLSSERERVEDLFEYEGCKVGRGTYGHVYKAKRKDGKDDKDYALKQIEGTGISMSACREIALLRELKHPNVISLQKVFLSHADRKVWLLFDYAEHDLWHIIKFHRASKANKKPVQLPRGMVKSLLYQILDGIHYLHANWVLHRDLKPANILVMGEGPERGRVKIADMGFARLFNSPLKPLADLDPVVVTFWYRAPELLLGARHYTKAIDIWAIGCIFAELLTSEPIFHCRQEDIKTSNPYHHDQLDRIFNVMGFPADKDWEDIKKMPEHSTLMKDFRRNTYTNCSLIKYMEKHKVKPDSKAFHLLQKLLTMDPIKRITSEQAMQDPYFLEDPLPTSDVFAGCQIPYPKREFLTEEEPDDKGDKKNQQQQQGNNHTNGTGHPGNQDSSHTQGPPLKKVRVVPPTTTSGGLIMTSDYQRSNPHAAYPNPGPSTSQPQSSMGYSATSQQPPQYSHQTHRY

In the case of `CCc1ccccc1NC(=O)c1cncc(-c2ccc(C(=O)N3CCNCC3)cc2)c1`, the outcome in the data set with BMDC [1], with Mus musculus [5] and in the data set on Mus musculus [8] was Active. The inhibition entry (with BMDC [2]; with BMDC [10]; in [13]) was “Active” each time. For the same compound, the Activity result is “Non-Toxic” in data set [3], “Dde” with Mus musculus [4], “Dde” in [12] and “Non-Toxic” in data set [14]. The bioavailability in [6] came to 29.3%. The values for the MRT in data set [7] and in data set [11] were 2.03 h and 1.97 h, respectively. Also, in data set [9], the Cmax worked out at 237 ng/mL.
